SMILES strings stand for the structures.

For the test, the target named is T1, human RORgT (Homo sapiens, UniProt P51449).
T1 construct: expressed in transfected cells
T1 sequence (P51449 267-516): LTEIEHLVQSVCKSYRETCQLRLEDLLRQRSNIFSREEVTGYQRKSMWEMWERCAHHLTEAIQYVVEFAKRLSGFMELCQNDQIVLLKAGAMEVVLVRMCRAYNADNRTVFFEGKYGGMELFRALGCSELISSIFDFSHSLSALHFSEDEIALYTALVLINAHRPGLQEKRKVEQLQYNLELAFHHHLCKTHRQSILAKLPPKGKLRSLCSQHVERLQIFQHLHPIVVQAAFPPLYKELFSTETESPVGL
Nature of the test: RORgT Gal4 Luciferase Reporter Gene Assay. As to conditions: engineered Jurkat cells overexpressing RORgT (LBD or full length) fused with Gal4 Luc reporter; 18 hours at 37° C.; luminescence. It is filed as cell-based. In a few lines:
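Jurkat cells expressing Gal4 Luc with either RORgT LBD (aa267-516) or full-length human RORgT, 10,000 cells/well, treated with compound (40 µM to 0.67 nM final, 3-fold dilutions) for 18 h at 37° C. Steady-Glo luminescence read; inhibition of constitutive activity as % signal-window reduction relative to a control compound.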
(A reporter such as luciferase makes a cellular process visible.)
As for `CN1CCC(C(=O)N2CC[C@@]3(S(=O)(=O)c4ccccc4)c4ccc(OCc5c(Cl)cccc5Cl)cc4CC[C@@H]23)CC1` [Example 61, 4-[(3aR,9bR)-9b-(benzenesulfonyl)-7-[(2,6-dichlorophenyl)methoxy]-1H,2H,3H,3aH,4H,5H,9bH-benzo[e]indole-3-carbonyl]-I-methylpiperidine], a half-maximal response (EC50) required 76 nM.
With `NC(=O)N1CCC(C(=O)N2CC[C@@]3(S(=O)(=O)c4ccc(F)cc4)c4ccc(OCc5cc(F)c(F)cc5Cl)cc4CC[C@@H]23)CC1` [Example 210, 4-[(3aR,9bR)-7-[(2-chloro-4,5-difluorophenyl)methoxy]-9b-(4-fluorobenzenesulfonyl)-1H,2H,3H,3aH,4H,5H,9bH-benzo[e]indole-3-carbonyl] piperidine-1-carboxamide] the figure was 9.9 nM.
With `O=C(O)[C@H]1CC[C@H](C(=O)N2CC[C@@]3(S(=O)(=O)c4ccc(F)cc4)c4ccc(Sc5c(Cl)cccc5Cl)cc4CC[C@@H]23)CC1` [Example 119, (1r,4r)-4-[(3aR,9bR)-7-[(2,6-dichlorophenyl)sulfanyl]-9b-(4-fluorobenzenesulfonyl)-1H,2H,3H,3aH,4H,5H,9bH-benzo[e]indole-3-carbonyl]cyclohexane-1-carboxylic acid] the figure was 1.4 nM.
With `O=C(O)[C@H]1CC[C@H](C(=O)N2CC[C@@]3(S(=O)(=O)c4ccccc4)c4ccc(OCc5ccccc5)cc4CC[C@@H]23)CC1` [Example 54, (1r,4r)-4-[(3aR,9bR)-9b-(benzenesulfonyl)-7-(benzyloxy)-1H,2H,3H,3aH,4H,5H,9bH-benzo[e]indole-3-carbonyl]cyclohexane-1-carboxylic acid] the figure was 290 nM; with `O=C([C@@H](O)C(F)(F)F)N1CC[C@@]2(S(=O)(=O)c3ccc(F)cc3)c3ccc(OCc4c(F)cccc4C(F)(F)F)cc3CC[C@@H]12` [Example 20, (2R)-1-[(3aR,9bR)-7-{[2-fluoro-6-(trifluoromethyl)phenyl]methoxy} -9b-(4-fluorobenzenesulfonyl)-1H,2H,3H,3aH,4H,5H,9bH-benzo[e]indol-3-yl]-3,3,3-trifluoro-2-hydroxypropan-1-one], 42 nM.
Turning to `CN1CCC(C(=O)N2CC[C@@]3(S(=O)(=O)c4ccc(F)cc4)c4ccc(OCc5c(F)cccc5C(F)(F)F)cc4CC[C@@H]23)CC1` [Example 184, 4-[(3aR,9bR)-7-{[2-fluoro-6-(trifluoromethyl)phenyl]methoxy}-9b-(4-fluorobenzenesulfonyl)-1H,2H,3H,3aH,4H,5H,9bH-benzo[e]indole-3-carbonyl]-1-methylpiperidine], a half-maximal effect (EC50) was put at 68 nM.
Take `CS(=O)(=O)CC(=O)N1CC[C@@]2(S(=O)(=O)c3ccccc3)c3ccc(OCc4c(Cl)cccc4Cl)cc3CC[C@@H]12` [Example 69, 1-[(3aR,9bR)-9b-(benzenesulfonyl)-7-[(2,6-dichlorophenyl)methoxy]-1H,2H,3H,3aH,4H,5H,9bH-benzo[e]indol-3-yl]-2-methanesulfonylethan-1-one]: the EC50 (usually the concentration that produces a half-maximal response) came to 17 nM.
With `O=C(C1CCS(=O)(=O)CC1)N1CC[C@@]2(S(=O)(=O)c3ccc(F)cc3)c3ccc(CCc4c(Cl)cccc4Cl)cc3CC[C@@H]12` [Example 161, 4-[(3aR,9bR)-7-[2-(2,6-dichlorophenyl)ethyl]-9b-(4-fluorobenzenesulfonyl)-1H,2H,3H,3aH,4H,5H,9bH-benzo[e]indole-3-carbonyl]-1λ^6-thiane-1,1-dione] the figure was 5.8 nM.
On to `NS(=O)(=O)CC(=O)N1CC[C@@]2(S(=O)(=O)c3ccc(F)cc3)c3ccc(OCc4cc(F)ccc4Cl)cc3CC[C@@H]12` [Example 194, 2-[(3aR,9bR)-7-[(2-chloro-5-fluorophenyl)methoxy]-9b-(4-fluorobenzenesulfonyl)-1H,2H,3H,3aH,4H,5H,9bH-benzo[e]indol-3-yl]-2-oxoethane-1-sulfonamide], for which the EC50 is 189 nM.
Under `NC(=O)N1CCC(C(=O)N2CC[C@@]3(S(=O)(=O)c4ccc(F)cc4)c4ccc(OCc5cc(Cl)ccc5Cl)cc4CC[C@@H]23)CC1` [Example 202, 4-[(3aR,9bR)-7-[(2,5-dichlorophenyl)methoxy]-9b-(4-fluorobenzenesulfonyl)-1H,2H,3H,3aH,4H,5H,9bH-benzo[e]indole-3-carbony1]piperidine-1-carboxamide] stands 15 nM; under `Cc1ccccc1Cc1ccc2c(c1)CC[C@H]1N(C(=O)C3(C)CCS(=O)(=O)CC3)CC[C@@]21S(=O)(=O)c1ccc(F)cc1` [Example 46, 4-[(3aR,9bR)-9b-(4-fluorobenzenesulfonyl)-7-[(2-methylphenyl)methyl]-1H,2H,3H,3aH,4H,5H,9bH-benzo[e]indole-3-carbonyl]-4-methyl-1λ^6-thiane-1,1-dione], 2.7 nM.
With `O=C(N1CC[C@@]2(S(=O)(=O)c3ccc(F)cc3)c3ccc(OCc4c(F)cccc4Cl)cc3CC[C@@H]12)C1(O)CCS(=O)(=O)CC1` [Example 16, 4-[(3aR,9bR)-7-[(2-chloro-6-fluorophenyl)methoxy]-9b-(4-fluorobenzenesulfonyl)-1H,2H,3H,3aH,4H,5H,9bH-benzo[e]indole-3-carbonyl]-4-hydroxy-1λ^6-thiane-1,1-dione] the figure was 5.5 nM; with `C[C@@H]1C[C@@H](C(=O)O)CC[C@@H]1C(=O)N1CC[C@@]2(S(=O)(=O)c3ccc(F)cc3)c3ccc(OCc4c(F)cccc4Cl)cc3CC[C@@H]12` [Example 22, (1S,3R,4S)-4-[(3aR,9bR)-7-[(2-chloro-6-fluorophenyl)methoxy]-9b-(4-fluorobenzenesulfonyl)-1H,2H,3H,3aH,4H,5H9bH-benzo[e]indole-3-carbonyl]-3-methylcyclohexane-1-carboxylic acid], 17 nM; with `O=C1NC(C(=O)N2CC[C@@]3(S(=O)(=O)c4ccccc4)c4ccc(OCc5c(Cl)cccc5Cl)cc4CC[C@@H]23)CO1` (stereo partly drawn) [Example 65, 4-[(3aR,9bR)-9b-(benzenesulfonyl)-7-[(2,6-dichlorophenyl)methoxy]-1H,2H,3H,3aH,4H,5H,9bH-benzo[e]indole-3-carbonyl]-1,3-oxazolidin-2-one], 256 nM.
`C[C@]1(C(=O)O)CC[C@H](C(=O)N2CC[C@@]3(S(=O)(=O)c4ccc(F)cc4)c4ccc(OCc5c(F)cccc5Cl)cc4CC[C@@H]23)CC1` [Example 21, (1r,4r)-4-[(3aR,9bR)-7-[(2-chloro-6-fluorophenyl)methoxy]-9b-(4-fluorobenzenesulfonyl)-1H,2H,3H,3aH,4H,5H,9bH-benzo[e]indole-3-carbonyl]-1-methylcyclohexane-1-carboxylic acid]: the concentration giving a half-maximal response (EC50) was determined as 10 nM.
`CN1CCC(C(=O)N2CC[C@@]3(S(=O)(=O)c4ccccc4)c4ccc(OCc5c(Cl)cccc5Cl)cc4CC[C@@H]23)CC1=O` (stereo partly drawn) [Example 55, 4-[(3aR,9bR)-9b-(benzenesulfonyl)-7-[(2,6-dichlorophenyl)methoxy]-1H,2H,3H,3aH,4H,5H,9bH-benzo[e]indole-3-carbonyl]-1-methylpiperidin-2-one] gave an EC50 of 83 nM.
With `O=C(CN1CCS(=O)(=O)CC1)N1CC[C@@]2(S(=O)(=O)c3ccc(F)cc3)c3ccc(OCc4cc(Cl)ccc4Cl)cc3CC[C@@H]12` [Example 197, 4-{2-[(3aR,9bR)-7-[(2,5-dichlorophenyl)methoxy] -9b-(4-fluorobenzenesulfonyl)-1H,2H,3H,3aH,4H,5H,9bH-benzo[e]indol-3-yl]-2-oxoethyl}-1λ^6-thiomorpholine-1,1-dione] the figure was 49 nM.
As for `O=C(C1CCS(=O)(=O)CC1)N1CC[C@@]2(S(=O)(=O)c3ccccc3)c3ccc(OCc4cc(F)ccc4Cl)cc3CC[C@@H]12` [Example 130, 4-[(3aR,9bR)-9b-(benzenesulfonyl)-7-[(2-chloro-5-fluorophenyl)methoxy]-1H,2H,3H,3aH,4H,5H,9bH-benzo[e]indole-3-carbonyl]-1λ^6-thiane-1,1-dione], the concentration for a half-maximal effect (EC50) came out at 12 nM.
Under `N#CCCN1C(=O)CC[C@H]1C(=O)N1CC[C@@]2(S(=O)(=O)c3ccc(F)cc3)c3ccc(OCc4cc(F)c(F)cc4Cl)cc3CC[C@@H]12` [Example 158, 3-[(2S)-2-[(3aR,9bR)-7-[(2-chloro-4,5-difluorophenyl)methoxy]-9b-(4-fluorobenzenesulfonyl)-1H,2H,3H,3aH,4H,5H,9bH-benzo[e]indole-3-carbonyl]-5-oxopyrrolidin-l-yl]propanenitrile] stands 12 nM; under `O=C1CC(C(=O)N2CC[C@@]3(S(=O)(=O)c4ccccc4)c4ccc(OCc5c(F)cccc5Cl)cc4CC[C@@H]23)CN1` (stereo partly drawn) [Example 140, 4-[(3aR,9bR)-9b-(benzenesulfonyl)-7-[(2-chloro-6-fluorophenyl)methoxy]-1H,2H,3H,3aH,4H,5H,9bH-benzo[e]indole-3-carbonyl]pyrrolidin-2-one], 134 nM.
Under `CC(C#N)CN1C(=O)CC[C@H]1C(=O)N1CC[C@@]2(S(=O)(=O)c3ccc(F)cc3)c3ccc(OCc4c(F)cccc4C(F)(F)F)cc3CC[C@@H]12` (stereo partly drawn) [Example 29, 3-[(2S)-2-[(3aR,9bR)-7-{[2-fluoro-6-(trifluoromethyl)phenyl]methoxy} -9b-(4-fluorobenzenesulfonyl)-1H,2H,3H,3aH,4H,5H9bH-benzo[e]indole-3-carbonyl]-5-oxopyrrolidin-1-yl]-2-methylpropanenitrile] stands 3.6 nM; under `O=C(C1CCS(=O)(=O)C1)N1CC[C@@]2(S(=O)(=O)c3ccc(F)cc3)c3ccc(OCc4cc(F)ccc4Cl)cc3CC[C@@H]12` (stereo partly drawn) [Example 178, 3-[(3aR,9bR)-7-[(2-chloro-5-fluorophenyl)methoxy]-9b-(4-fluorobenzenesulfonyl)-1H,2H,3H,3aH,4H,5H,9bH-benzo[e]indole-3-carbonyl]-1λ^6-thiolane-1,1-dione], 12 nM.

These data come from US20230295087A1, “AGONISTS OF ROR GAMMAt” (BRISTOL-MYERS SQUIBB COMPANY, priority 2019, published 2023).
